Drawing on patent publication US20080012929A1, “AZO DYE, HEAT-SENSITIVE TRANSFER RECORDING INK SHEET, HEAT-SENSITIVE TRANSFER RECORDING METHOD, COLOR TONER, INKJET INK AND COLOR FILTER” (FUJIFILM Corporation, priority 2006, published 2008), this text covers Solubility of dye and Light fastness for 6 compounds.

Structures are written as SMILES.

Series [1] is described as follows: Solubility of dye when preparing the ink sheet dye-providing layer-coating composition. It is filed as physicochemical. Further details: key: A: the dye easily dissolves; B: the dye dissolves; C: the dye is sparingly soluble, but dissolves. The note with it: methyl ethyl ketone/toluene (1/1), polyvinylbutyral resin. The procedure:
A polyester film of 6.0 μm in thickness (trade name: Lumirror, manufactured by Toray Industries, Inc.), a back surface of which had been subjected to a heat resistant lubricating treatment with a 1 μm thick thermosetting acrylic resin, was used as a support. On the front surface of the film, the following dye-providing layer-coating composition was coated by a wire bar coating so that a dry thinness of the dye-providing layer became 1 μm. Thus, Ink sheet 1 was prepared.
Solubility of these dyes contained in these ink sheets were evaluated according to the following three grades: • A: the dye easily dissolves. • B: the dye dissolves. • C: the dye is sparingly soluble, but dissolves.

Series [2] in a line: Light stability (fastness to light) of the dye image under Xenon light irradiation. It is filed as physicochemical. The following applies: residual ratio of Status A reflection density (initial 1.0) after Xenon light (17000 lux) for 7 days. The procedure:
Next, each of the thus-image-recorded heat-sensitive transfer image-receiving materials was subjected to irradiation with Xenon light (17000 lux) for 7 days, to examine light stability (fastness to light) of the dye image. Status A reflection densities after irradiation were measured in the portions indicating Status A reflection density of 1.0, and a stability of the image was evaluated in terms of a residual ratio (percentage) based on the reflection density before irradiation, according to the following three grades: • A: 80% or more, but 100% or less • B: 60% or more, but less than 80% • C: less than 60%

Take `CCCCCn1nc(C(C)(C)C)c(N=Nc2ccc([N+](=O)[O-])cc2)c1N` [(5)]: in series [1], the Solubility of dye entry is listed as “A”. Further, the Light fastness entry in series [2] is “A (80% or more, but 100% or less)”.
For the compound `CC(C)Cn1nc(C(C)(C)C)c(N=Nc2ccc([N+](=O)[O-])cc2)c1N` [(7)], the Solubility of dye result in series [1] is “A”. Further, the Light fastness entry in series [2] was “A (80% or more, but 100% or less)”.
Consider `CCC(C)n1nc(C(C)(C)C)c(N=Nc2ccc([N+](=O)[O-])cc2)c1N` (stereo not drawn) [(8)], for which, in series [1], the Solubility of dye entry is “A”. Also, the Light fastness result in series [2] was “A (80% or more, but 100% or less)”.
Take `CC(C)CCn1nc(C(C)(C)C)c(N=Nc2ccc([N+](=O)[O-])cc2)c1N` [(9)]: the Solubility of dye result in series [1] is “A”. In addition, the Light fastness entry in series [2] is “A (80% or more, but 100% or less)”.
The matching figures for `CCN(CCOc1ccc(C2CCCCC2)cc1)c1ccc(C=C(C#N)C#N)c(C)c1` [Dye for Comparison 2, reference compound]: “A” and “C (less than 60%)”.
As to `CCCCN(CCCC)C(=O)c1ccc2c(c1)C(=O)C(c1nc3ccc(C(C)C)cc3cc1O)C2=O` (stereo not drawn) [Dye for Comparison 3, reference compound], the Solubility of dye entry in series [1] is listed as “B”. In series [2], the Light fastness entry is “A (80% or more, but 100% or less)”.
